Laboratory results taken from patent publication US9371319B2, “Pyrrolopyridineamino derivatives as MPS1 inhibitors” (priority 2011, dated 2016).

Biological target: T1, full length MPS1 (Homo sapiens, UniProt P33981)
T1 sequence (P33981 1-857): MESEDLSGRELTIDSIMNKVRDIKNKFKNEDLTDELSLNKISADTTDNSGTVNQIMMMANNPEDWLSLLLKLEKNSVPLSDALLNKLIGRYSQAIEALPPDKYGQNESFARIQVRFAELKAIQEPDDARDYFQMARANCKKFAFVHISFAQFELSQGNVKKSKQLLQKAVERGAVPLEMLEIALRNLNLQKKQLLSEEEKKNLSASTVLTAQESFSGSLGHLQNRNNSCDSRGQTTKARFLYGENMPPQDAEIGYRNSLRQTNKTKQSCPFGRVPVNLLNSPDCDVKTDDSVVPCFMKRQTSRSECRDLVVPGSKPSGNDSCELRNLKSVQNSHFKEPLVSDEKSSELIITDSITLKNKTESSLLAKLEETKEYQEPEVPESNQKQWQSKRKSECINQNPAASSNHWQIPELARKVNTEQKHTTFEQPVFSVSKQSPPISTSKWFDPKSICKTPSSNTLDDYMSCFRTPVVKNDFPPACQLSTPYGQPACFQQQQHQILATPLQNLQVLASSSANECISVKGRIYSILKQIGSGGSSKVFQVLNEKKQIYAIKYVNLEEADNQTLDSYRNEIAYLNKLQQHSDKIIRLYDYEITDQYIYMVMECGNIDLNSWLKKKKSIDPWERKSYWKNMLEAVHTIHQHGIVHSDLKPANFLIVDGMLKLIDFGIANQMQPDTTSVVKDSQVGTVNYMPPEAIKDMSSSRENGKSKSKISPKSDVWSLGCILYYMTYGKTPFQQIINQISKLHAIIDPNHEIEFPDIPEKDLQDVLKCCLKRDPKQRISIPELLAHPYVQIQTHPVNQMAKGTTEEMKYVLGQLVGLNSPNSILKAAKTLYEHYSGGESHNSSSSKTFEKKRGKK
Assay: biochemical
Procedure: Measurement of Inhibition of MPS1 Kinase
(5 μM), ATP (10 μM), either DMSO (1% v/v) or the test compound (in the range 0.25 nM-100 μM in 1% DMSO) and assay buffer (50 mM HEPES (pH 7.0), 0.02% NaN3, 0.01% BSA, 0.1 mM Orthovandate, […], 1 μM DTT, Roche protease inhibitor). The reaction was carried out for 60 min at room temperature and stopped by the addition of buffer (10 μl) containing 20 mM EDTA, 0.05% (v/v) Brij-35, in 0.1M HEPES-buffered saline (Free acid, Sigma, UK). The plate was read on a Caliper EZ reader II (Caliper Life Sciences).
The % inhibition of the compounds is calculated relative to the means of selected control wells. […] The % inhibitions at each concentration are then fitted to a 4 parameter logistic fit: y=(a+((b−a)/(1+((c/x^d)))) where a=asym min, b=asym max, c=IC50 and d=hill coefficient

IC50 [nM] | SMILES
821 | COc1ccc(Nc2cc3[nH]c(-c4cnn(CC(=O)N(C)C)c4)cc3cn2)c(OC)c1 [Example 135, 2-(4-(6-(2,4-Dimethoxyphenylamino)-1H-pyrrolo[3,2-c]pyridin-2-yl)-1H-pyrazol-1-yl)-N,N-dimethylacetamide]
3 | CN(C)C(=O)c1ccc(Nc2cc3[nH]c(-c4cnco4)c(Cl)c3cn2)c(Cl)c1 [Example 178, 3-Chloro-4-(3-chloro-2-(oxazol-5-yl)-1H-pyrrolo[3,2-c]pyridin-6-ylamino)-N,N-dimethylbenzamide]
53 | CN(C)C(=O)c1ccc(Nc2cc3c(cn2)c(Cl)c(-c2cnn(C)c2)n3CC2CC2)c(Cl)c1 [Example 192, 3-Chloro-4-(3-chloro-1-(cyclopropylmethyl)-2-(1-methyl-1H-pyrazol-4-yl)-1H-pyrrolo[3,2-c]pyridin-6-ylamino)-N,N-dimethylbenzamide]
9 | Cc1ccc(-c2ccc(Nc3cc4c(cn3)cc(-c3cnn(C)c3)n4C(=O)OC(C)(C)C)c(Cl)c2)cn1 [Example 49]
114 | Cc1nc(C)c(-c2ccc(Nc3cc4[nH]c(-c5cnn(C)c5)cc4cn3)c(Cl)c2)s1 [Example 150, N-(2-Chloro-4-(2,4-dimethylthiazol-5-yl)phenyl)-2-(1-methyl-1H-pyrazol-4-yl)-1H-pyrrolo[3,2-c]pyridin-6-amine]
2 | CCCOC(=O)n1c(-c2cnn(C)c2)cc2cnc(Nc3ccc(-c4cnc(C)n4C)cc3Cl)cc21 [Example 88]
1060 | FC(F)(F)c1ccc(Nc2cc3[nH]c(-c4cn[nH]c4)cc3cn2)cc1 [Example 161, 2-(1H-Pyrazol-4-yl)-N-(4-(trifluoromethyl)phenyl)-1H-pyrrolo[3,2-c]pyridin-6-amine]
25 | COc1cc(CN2CCCC2)ccc1Nc1cc2[nH]c(-c3cnn(C)c3)cc2cn1 [Example 137, N-(2-methoxy-4-(pyrrolidin-1-ylmethyl)phenyl)-2-(1-methyl-1H-pyrazol-4-yl)-1H-pyrrolo[3,2-c]pyridin-6-amine]
80 | CC(=O)N1CCN(c2ccc(Nc3cc4[nH]c(-c5cn[nH]c5)cc4cn3)cc2)CC1 [Example 169, 1-(4-(4-(2-(1H-Pyrazol-4-yl)-1H-pyrrolo[3,2-c]pyridin-6-ylamino)phenyl)piperazin-1-yl)ethanone]
2 | Cc1ncc(-c2ccc(Nc3cc4c(cn3)cc(-c3cnn(C)c3)n4C(=O)OC3CCCC3)c(Cl)c2)n1C [Example 84]
119 | COc1cc(F)ccc1Nc1cc2[nH]c(-c3cnn(C)c3)cc2cn1 [Example 157, N-(4-Fluoro-2-methoxyphenyl)-2-(1-methyl-1H-pyrazol-4-yl)-1H-pyrrolo[3,2-c]pyridin-6-amine]
1 | Cn1cc(-c2cc3cnc(Nc4ccc(-c5nncn5C)cc4Cl)cc3n2C(=O)OC(C)(C)C)cn1 [Example 18]
97 | CN(C)C(=O)c1ccc(Nc2cc3c(cn2)c(Cl)c(-c2cnn(C)c2)n3CC2CCCC2)c(Cl)c1 [Example 191, 3-Chloro-4-(3-chloro-1-(cyclopentylmethyl)-2-(1-methyl-1H-pyrazol-4-yl)-1H-pyrrolo[3,2-c]pyridin-6-ylamino)-N,N-dimethylbenzamide]
50 | CC(C)n1c(-c2cnn(C)c2)cc2cnc(Nc3ccc(C(=O)N(C)C)cc3Cl)cc21 [Example 74]
31 | CNCc1ccc(Nc2cc3[nH]c(-c4cnn(C)c4)cc3cn2)c(OC)c1 [Example 138, N-(2-methoxy-4-((methylamino)methyl)phenyl)-2-(1-methyl-1H-pyrazol-4-yl)-1H-pyrrolo[3,2-c]pyridin-6-amine]
8 | CN1CCN(C(=O)c2ccc(Nc3cc4c(cn3)cc(-c3cnn(C)c3)n4C(=O)OC(C)(C)C)c(Cl)c2)CC1 [Example 41]
7 | COC(=O)n1c(-c2cnn(C)c2)cc2cnc(Nc3ccc(-c4cnc(C)n4C)cc3Cl)cc21 [Example 86]

IC50 [nM] | SMILES
4 | O=S1(=O)CCN(Cc2ccc(Nc3cc4[nH]c(-c5cn[nH]c5)cc4cn3)cc2)CC1 [Example 175, 2-(1H-Pyrazol-4-yl)-N-(4-(thiomorpholinomethyl)phenyl)-1H-pyrrolo[3,2-c]pyridin-6-amine-S,S-dioxide]
11 | Cn1cc(-c2cc3cnc(Nc4ccc(-c5cncn5C)cc4Cl)cc3n2C(=O)OC2CCCC2)cn1 [Example 78]
5 | Cn1cc(-c2cc3cnc(Nc4ccc(-c5cncn5C)cc4Cl)cc3n2C(=O)OC2CCC2)cn1 [Example 82]
5 | Cc1ncc(-c2ccc(Nc3cc4[nH]c(-c5cnn(C)c5)cc4cn3)c(Cl)c2)n1C [Example 152, N-(2-Chloro-4-(1,2-dimethyl-1H-imidazol-5-yl)phenyl)-2-(1-methyl-1H-pyrazol-4-yl)-1H-pyrrolo[3,2-c]pyridin-6-amine]
68 | CN(C)C(=O)c1ccc(Nc2cc3[nH]c(-c4cnn(C)c4)cc3cn2)c(OC(F)(F)F)c1 [Example 113, N,N-Dimethyl-4-(2-(1-methyl-1H-pyrazol-4-yl)-1H-pyrrolo[3,2-c]pyridin-6-ylamino)-3-(trifluoromethoxy)benzamide]
2 | CCOC(=O)n1c(-c2cnn(C)c2)cc2cnc(Nc3ccc(-c4cnc(C)n4C)cc3Cl)cc21 [Example 87]
20 | CNC(=O)c1ccc(Nc2cc3[nH]c(-c4cnn(C)c4)cc3cn2)c(Cl)c1 [Example 134, 3-Chloro-N-methyl-4-(2-(1-methyl-1H-pyrazol-4-yl)-1H-pyrrolo[3,2-c]pyridin-6-ylamino)benzamide]
11 | CN(C)C(=O)c1ccc(Nc2cc3[nH]c(-c4cn[nH]c4)cc3cn2)cc1 [Example 168, 4-(2-(1H-Pyrazol-4-yl)-1H-pyrrolo[3,2-c]pyridin-6-ylamino)-N,N-dimethylbenzamide]
9 | Cn1cc(-c2[nH]c3cc(Nc4ccc(C(=O)N5CCS(=O)(=O)CC5)cc4Cl)ncc3c2Cl)cn1 [Example 196, (3-Chloro-4-(3-chloro-2-(1-methyl-1H-pyrazol-4-yl)-1H-pyrrolo[3,2-c]pyridin-6-ylamino)phenyl)(S,S-dioxo-thiomorpholino)methanone]
8 | COC1CN(C(=O)c2ccc(Nc3cc4c(cn3)cc(-c3cnn(C)c3)n4C(=O)OC(C)(C)C)c(Cl)c2)C1 [Example 37]
182 | COc1cc(-c2ccc(Nc3cc4[nH]c(-c5cnn(C)c5)cc4cn3)c(Cl)c2)ccn1 [Example 151, N-(2-Chloro-4-(2-methoxypyridin-4-yl)phenyl)-2-(1-methyl-1H-pyrazol-4-yl)-1H-pyrrolo[3,2-c]pyridin-6-amine]
287 | CC(C)OC(=O)n1c(-c2cnn(C)c2)cc2cnc(Nc3cc(-c4cnn(C)c4)ccc3Cl)cc21 [Example 89]
43 | COc1cc(CN)ccc1Nc1cc2[nH]c(-c3cnn(C)c3)cc2cn1 [Example 140, N-(4-(Aminomethyl)-2-methoxyphenyl)-2-(1-methyl-1H-pyrazol-4-yl)-1H-pyrrolo[3,2-c]pyridin-6-amine]
4880 | Cn1cc(-c2cc3cnc(Nc4ccccc4Cl)cc3n2CC2CCCCC2)cn1 [Example 67]
111 | COc1cc(CN(C)C(=O)OC(C)(C)C)ccc1Nc1cc2c(cn1)cc(-c1cnn(C)c1)n2C(=O)OC(C)(C)C [Example 34]
207 | COc1ccc(Nc2cc3[nH]c(-c4cnn(Cc5cc(C)on5)c4)cc3cn2)c(OC)c1 [Example 173, N-(2,4-Dimethoxyphenyl)-2-(1-((5-methylisoxazol-3-yl)methyl)-1H-pyrazol-4-yl)-1H-pyrrolo[3,2-c]pyridin-6-amine]
